Measurements published in paper PMC8037723, “Functional Characterization of an Anthocyanin Dimalonyltransferase in Maize” (Molecules, 2021).

System: T1, Aat1
T1 construct: full length, 6x-His-tag in pET-30a(+) (EcoRI/HindIII), E. coli Rosetta-gami 2(DE3)pLysS, Ni-NTA purified
Test: UHPLC product quantification at […] nm, Michaelis-Menten fit
Type: biochemical, Zea mays
Conditions: 100 mM potassium phosphate pH 8.0, 30 °C

[1] = acyl donor, 120 µM cyanidin 3-O-glucoside, donor 5-30 µM
[2] = 60 µM malonyl-CoA, substrate 5-120 µM

Structure (SMILES)	Km [1]	Km [2]	also measured
OC[C@H]1O[C@@H](Oc2cc3c(O)cc(O)cc3[o+]c2-c2ccc(O)cc2)[C@H](O)[C@@H](O)[C@@H]1O [Pelargonidin 3-O-Glucoside]	–	8.92 ± 0.41 µM	–
COc1cc(-c2[o+]c3cc(O)cc(O)c3cc2O[C@@H]2O[C@H](CO)[C@@H](O)[C@H](O)[C@H]2O)ccc1O [Peonidin 3-O-Glucoside]	–	5.14 ± 0.93 µM	–
OC[C@H]1O[C@@H](Oc2cc3c(O)cc(O)cc3[o+]c2-c2ccc(O)c(O)c2)[C@H](O)[C@@H](O)[C@@H]1O [compound 1, Cyanidin 3-O-Glucoside]	–	13.1 ± 0.23 µM	–
O=C(O)CC(=O)OC[C@H]1O[C@@H](Oc2cc3c(O)cc(O)cc3[o+]c2-c2ccc(O)c(O)c2)[C@H](O)[C@@H](O)[C@@H]1O [compound 2, Cyanidin 3-O-6”-Malonylglucoside]	–	–	Km (60 µM malonyl-CoA, substrate 2.5-30 µM, semi-preparative fraction of 91.95% purity): 1.33 ± 3.97 µM

Continued, in another order:

Km [1]	Km [2]	Structure (SMILES)	also measured
40.12 ± 0.04 µM	–	CC(C)(COP(=O)(O)OP(=O)(O)OC[C@H]1O[C@@H](n2cnc3c(N)ncnc32)[C@H](O)[C@@H]1OP(=O)(O)O)[C@@H](O)C(=O)NCCC(=O)NCCSC(=O)CC(=O)O [Malonyl-CoA]	–
60.09 ± 0.02 µM	–	CC(C)(COP(=O)(O)OP(=O)(O)OC[C@H]1O[C@@H](n2cnc3c(N)ncnc32)[C@H](O)[C@@H]1OP(=O)(O)O)[C@@H](O)C(=O)NCCC(=O)NCCSC(=O)CCC(=O)O [Succinyl-CoA]	–
